Test results published in ChEMBL document CHEMBL5346925, “3,4-Dihydrobenzo[e][1,2,3]oxathiazine 2,2-dioxide analogs act as potential AMPA receptor potentiators with antidepressant activity” (Eur J Med Chem, 2023).

What was measured:
[1] = target: T1, Glutamate receptor ionotropic, AMPA (Rattus norvegicus) (UniProt P19491+P19492+P19493+P19490); experiment: Agonist activity at AMPA receptor in rat Primary neuron cells assessed as potentiation of s-AMPA induced calcium flux at 1 uM incubated for 1 hr by calcium 2+ influx assay relative to s-AMPA coupled TAK-137; format: cell-based
[2] = target: T1, Glutamate receptor ionotropic, AMPA (Rattus norvegicus); experiment: Agonist activity at AMPA receptor in rat Primary neuron cells assessed as increase in fluorescence level at 1 uM incubated for 1 hr by calcium 2+ influx assay relative to s-AMPA coupled TAK-137; format: cell-based
[3] = target: Glutamate receptor ionotropic, AMPA (Rattus norvegicus, UniProt P19490+P19491+P19492+P19493); experiment: Agonist activity at AMPA receptor in rat Primary neuron cells; format: cell-based
[4] = target: T1, Glutamate receptor ionotropic, AMPA (Rattus norvegicus); experiment: Agonist activity at AMPA receptor in rat Primary neuron cells relative to control; format: cell-based; settings: filed as agonist
[5] = Cmax in Sprague-Dawley rat at 3 mg/kg, po by LC-MS/MS analysis; format: ADME, organism-based; parameters: dose 3 mg/kg, route po; settings: in vivo
[6] = Clearance in Sprague-Dawley rat at 0.3 mg/kg, iv by LC-MS/MS analysis; format: ADME, organism-based; settings: in vivo
[7] = MRT (0 to t) in Sprague-Dawley rat at 0.3 mg/kg, iv by LC-MS/MS analysis; format: ADME, organism-based; settings: in vivo
[8] = MRT (0 to infinity) in Sprague-Dawley rat at 0.3 mg/kg, iv by LC-MS/MS analysis; format: ADME, organism-based; settings: in vivo
[9] = Oral bioavailability in Sprague-Dawley rat at 3 mg/kg by LC-MS/MS analysis; format: ADME, organism-based; settings: in vivo
[10] = Volume of distribution at steady state in Sprague-Dawley rat at 0.3 mg/kg, iv by LC-MS/MS analysis; format: ADME, organism-based; settings: in vivo, read-out: Vdss
[11] = AUC (0 to infinity) in Sprague-Dawley rat at 0.3 mg/kg, iv by LC-MS/MS analysis; format: ADME, organism-based; parameters: dose 0.3 mg/kg, route iv; settings: in vivo
[12] = Cmax in Sprague-Dawley rat at 0.3 mg/kg, iv by LC-MS/MS analysis; format: ADME, organism-based; parameters: dose 0.3 mg/kg, route iv; settings: in vivo
[13] = AUC (0 to t) in Sprague-Dawley rat at 0.3 mg/kg, iv by LC-MS/MS analysis; format: ADME, organism-based; parameters: dose 0.3 mg/kg, route iv; settings: in vivo
[14] = Half life in Sprague-Dawley rat at 0.3 mg/kg, iv by LC-MS/MS analysis; format: ADME, organism-based; settings: in vivo
[15] = Tmax in Sprague-Dawley rat at 3 mg/kg, po by LC-MS/MS analysis; format: ADME, organism-based; settings: in vivo
[16] = MRT (0 to t) in Sprague-Dawley rat at 3 mg/kg, po by LC-MS/MS analysis; format: ADME, organism-based; settings: in vivo
[17] = Tmax in Sprague-Dawley rat at 0.3 mg/kg, iv by LC-MS/MS analysis; format: ADME, organism-based; settings: in vivo
[18] = Half life in Sprague-Dawley rat at 3 mg/kg, po by LC-MS/MS analysis; format: ADME, organism-based; settings: in vivo
[19] = MRT (0 to infinity) in Sprague-Dawley rat at 3 mg/kg, po by LC-MS/MS analysis; format: ADME, organism-based; settings: in vivo
[20] = AUC (0 to t) in Sprague-Dawley rat at 3 mg/kg, po by LC-MS/MS analysis; format: ADME, organism-based; parameters: dose 3 mg/kg, route po; settings: in vivo
[21] = AUC (0 to infinity) in Sprague-Dawley rat at 3 mg/kg, po by LC-MS/MS analysis; format: ADME, organism-based; parameters: dose 3 mg/kg, route po; settings: in vivo

Row | Structure (SMILES) | Activity ([1]; filed as agonist) [%] | Activity [2] [%] | Activity [1] [%] | also measured
1 | CC1NS(=O)(=O)Oc2c(-c3ccc(-c4cccc(F)c4)cc3)cccc21 (stereo not drawn) | 62.4 | 8.6 | – | –
2 | CC(C)(C)c1ccc(-c2cccc3c2OS(=O)(=O)NC3)cc1 | 106 | 29.4 | – | –
3 | CC1NS(=O)(=O)Oc2c(-c3ccc(-c4ccccc4F)cc3)cccc21 (stereo not drawn) | 69.2 | 10.5 | – | –
4 | O=S1(=O)NCc2cc(-c3ccc(Oc4ccccc4)cc3)ccc2O1 | – | 0.5 | 1.4 | –
5 | O=S1(=O)NCc2ccc(-c3ccc(Oc4ccccc4)cc3)cc2O1 | – | 0.7 | -0.8 | –
6 | O=S1(=O)NCc2cccc(-c3ccc(-c4ccc(C(F)(F)F)cc4)cc3)c2O1 | – | 0.8 | 0.7 | –
7 | COc1ccc(-c2ccc(-c3cccc4c3OS(=O)(=O)NC4)cc2)cc1 | 82.4 | -3.7 | – | EC50 [3]: 1240 nM; Emax [4]: 79%
8 | COc1ccc(-c2cccc3c2OS(=O)(=O)NC3)cc1F | 98.4 | 19.2 | – | –
9 | COc1ccc(-c2cccc3c2OS(=O)(=O)NC3)cc1C(F)(F)F | – | 1.9 | 0.6 | –
10 | O=S1(=O)NCc2cccc(-c3ccc(Oc4ccccc4)cc3)c2O1 | 77.3 | 4.1 | – | Cmax [5]: 96.1 ng/mL; clearance [6]: 37.4 mL/min/kg; MRT last [7]: 0.7 h; MRT inf [8]: 0.81 h; bioavailability [9]: 19.8%; EC50 [3]: 1630 nM; Vd [10]: 1.79 L/kg; AUC(0-inf) [11]: 136 ng·h/mL; Cmax [12]: 246 ng/mL; AUC(0-t) [13]: 134 ng·h/mL; half-life [14]: 1.27 h; Tmax [15]: 0.5 h; MRT last [16]: 2.63 h; Tmax [17]: 4.8 min; half-life [18]: 3.12 h; MRT inf [19]: 4.56 h; AUC(0-t) [20]: 265 ng·h/mL; Emax [4]: 169%; AUC(0-inf) [21]: 328 ng·h/mL
11 | O=S1(=O)NCc2cccc(-c3ccc4c(c3)OCCO4)c2O1 | 90.7 | 19.5 | – | –
12 | COc1ccccc1-c1ccc(-c2cccc3c2OS(=O)(=O)NC3C)cc1 (stereo not drawn) | 65.5 | 8.5 | – | –
13 | O=S1(=O)NCc2cccc(-c3ccc4c(c3)OCO4)c2O1 | 92 | 17.1 | – | –
14 | COc1ccc(-c2cccc3c2OS(=O)(=O)NC3)c(F)c1 | – | 8.2 | 10.3 | –
15 | O=S1(=O)NCc2cccc(-c3ccccc3Oc3ccccc3)c2O1 | – | -0.5 | 1 | –
16 | Cc1ccc(-c2cccc3c2OS(=O)(=O)NC3)cc1 | 81.7 | 7.3 | – | –
17 | COc1ccccc1-c1ccc(-c2cccc3c2OS(=O)(=O)NC3)cc1 | 83.8 | 2.1 | – | EC50 [3]: 379 nM; Emax [4]: 125%
18 | COc1ccc(-c2cccc3c2OS(=O)(=O)NC3)cc1 | 89.3 | 1 | – | EC50 [3]: 555 nM; Emax [4]: 99%
19 | N#Cc1ccc(-c2cccc3c2OS(=O)(=O)NC3)cc1 | – | 2.9 | 23.7 | –
20 | COc1ccc(-c2ccc(-c3cccc4c3OS(=O)(=O)NC4C)cc2)cc1 (stereo not drawn) | 50.7 | 2.1 | – | –
21 | Cc1ccc(-c2ccc(-c3cccc4c3OS(=O)(=O)NC4C)cc2)cc1 (stereo not drawn) | 55.3 | 0.1 | – | –
22 | O=S1(=O)NCc2cccc(-c3ccc(-c4ccc(C(F)F)cc4)cc3)c2O1 | – | 7.2 | 23.9 | –

Row | Structure (SMILES) | Activity ([1]; filed as agonist) [%] | Activity [2] [%] | Activity [1] [%] | also measured
23 | CC(C)Oc1ccc(-c2cccc3c2OS(=O)(=O)NC3)cc1 | 107 | 13.2 | – | –
24 | COc1c(C)cc(-c2cccc3c2OS(=O)(=O)NC3)cc1C | – | 3.1 | 2.6 | –
25 | O=S1(=O)NCc2cccc(-c3ccc(-c4ccc(F)c(F)c4)cc3)c2O1 | – | 2.5 | 38.7 | –
26 | CC(C)Oc1ccc(-c2ccc(-c3cccc4c3OS(=O)(=O)NC4)cc2)cc1 | – | -2.1 | 3 | –
27 | Cc1ccc(-c2ccc(-c3cccc4c3OS(=O)(=O)NC4)cc2F)cc1 | – | 6.3 | 37.7 | –
28 | O=S1(=O)NCc2cccc(-c3cccc(Oc4ccccc4)c3)c2O1 | – | 1 | 1.9 | –
29 | Cc1ccc(-c2ccc(-c3cccc4c3OS(=O)(=O)NC4)cc2)cc1 | 66 | 3.5 | – | –
30 | COc1cccc(-c2ccc(-c3cccc4c3OS(=O)(=O)NC4)cc2)c1 | 56.4 | 2.5 | – | –
31 | O=S1(=O)NCc2cccc(-c3ccc(-c4ccccc4)cc3)c2O1 | 69.6 | 6.2 | – | –
32 | O=S1(=O)NCc2cccc(-c3ccc(C(F)(F)F)cc3)c2O1 | 81.3 | 14 | – | –
33 | O=S1(=O)NCc2cccc(-c3ccc(-c4ccc(F)cc4)cc3)c2O1 | 85.3 | 8.1 | – | –
34 | O=S1(=O)NCc2cccc(-c3ccc(F)cc3)c2O1 | 48 | 36.5 | – | –
35 | CC1NS(=O)(=O)Oc2c(-c3ccc(-c4ccc(F)cc4)cc3)cccc21 (stereo not drawn) | 59.6 | 3.7 | – | –
36 | O=S1(=O)NCc2cccc(-c3ccc(-c4ccc(OC(F)(F)F)cc4)cc3)c2O1 | – | -1.5 | -3 | –
37 | COc1cccc(-c2ccc(-c3cccc4c3OS(=O)(=O)NC4C)cc2)c1 (stereo not drawn) | 58.5 | 4.2 | – | –
38 | CC(C)(C)c1ccc(-c2ccc(-c3cccc4c3OS(=O)(=O)NC4)cc2)cc1 | – | -2 | -1.3 | –
39 | O=S1(=O)NCc2cccc(-c3ccc(OC(F)(F)F)cc3)c2O1 | 72.2 | 1.4 | – | –
40 | COc1ccc(-c2ccc(-c3cccc4c3OS(=O)(=O)NC4)cc2F)cc1 | 55.8 | 5.3 | – | –
41 | Cc1ccc(-c2ccc(-c3cccc4c3OS(=O)(=O)NC4)c(F)c2)cc1 | 40.7 | 1.4 | – | –
42 | O=S1(=O)NCc2c(cccc2-c2ccc(Oc3ccccc3)cc2)O1 | – | 0.8 | 0 | –
43 | O=S1(=O)NCc2cccc(-c3ccc(-c4cccc(F)c4)cc3)c2O1 | 72.1 | 3.5 | – | –
44 | COc1ccc(-c2ccc(-c3cccc4c3OS(=O)(=O)NC4)c(F)c2)cc1 | 67.9 | 3.2 | – | –
